“And” between values parts separate entries of the source, which are not always exact repeats. Identical values can stand only once.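 96-well plates; 48 h exposure; 5 concentrations. Endpoints by linear interpolation between flanking doses. Not reached: highest tested concentration assigned. The concentration for 50% growth inhibition is given as GI50. Definition used: TGI = concentration required for complete inhibition of growth.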
Legend:
Assay in all cases: inhibition of tumour cell growth, NCI panel, 48 h
M14 melanoma = tested on: M14 melanoma
HL-60(TB) leukemia = tested on: HL-60(TB) leukemia
OVCAR-4 ovarian = tested on: OVCAR-4 ovarian
NCI-H23 lung = tested on: NCI-H23 lung
LOX IMVI melanoma = tested on: LOX IMVI melanoma
U251 CNS = tested on: U251 CNS
DU-145 prostate = tested on: DU-145 prostate
HS 578T breast = tested on: HS 578T breast
CAKI-1 renal = tested on: CAKI-1 renal
UACC-257 melanoma = tested on: UACC-257 melanoma

| SMILES | TGI (M14 melanoma) | TGI (HL-60(TB) leukemia) | TGI (OVCAR-4 ovarian) | TGI (NCI-H23 lung) | TGI (LOX IMVI melanoma) | TGI (U251 CNS) | TGI (DU-145 prostate) | TGI (HS 578T breast) | TGI (CAKI-1 renal) | TGI (UACC-257 melanoma) | GI50 (HL-60(TB) leukemia) | GI50 (OVCAR-4 ovarian) | GI50 (NCI-H23 lung) | GI50 (LOX IMVI melanoma) | GI50 (CAKI-1 renal) | GI50 (M14 melanoma) | GI50 (HS 578T breast) | GI50 (U251 CNS) | GI50 (UACC-257 melanoma) | GI50 (DU-145 prostate) |
| --- | --- | --- | --- | --- | --- | --- | --- | --- | --- | --- | --- | --- | --- | --- | --- | --- | --- | --- | --- | --- |
| CCC1C(C)c2c([nH]c3ccccc23)C2C(=O)N(c3ccccc3)C(=O)C21 (stereo unspecified) | 33.4 µM | 33.9 µM | 38 µM | 41.8 µM | 31.8 µM | 29.3 µM |  |  |  |  |  |  |  |  |  |  |  |  |  |  |
| O=c1[nH]cc(CS(=O)(=O)Cc2c[nH]c(=O)[nH]c2=O)c(=O)[nH]1 | > 100 µM |  | > 100 µM | > 100 µM | > 100 µM | > 100 µM | > 100 µM | > 100 µM | > 100 µM | > 100 µM |  |  |  |  |  |  |  |  |  |  |
| Cc1c[nH]c2c1C13CC1CN(C(=O)c1cc4cc(NC(=O)c5cc6ccccc6o5)ccc4[nH]1)C3=CC2=O (stereo unspecified) | < 0.001 µM |  | < 0.001 µM | < 0.001 µM | < 0.001 µM | < 0.001 µM |  |  | < 0.001 µM |  | > 1.17 ng/mL | > 1.17 ng/mL | > 1.17 ng/mL | > 1.17 ng/mL | > 1.17 ng/mL |  |  |  |  |  |
| S=c1nc[nH]c2c1ncn2Cc1ccco1 | > 100 µM |  | > 100 µM | > 100 µM | > 100 µM | > 100 µM | > 100 µM | > 100 µM | > 100 µM | > 100 µM |  |  |  |  |  |  |  |  |  |  |
| Cc1cccc(NC(=O)C(=O)C2C(=O)NC(=O)NC2=O)c1C | > 100 µM | > 100 µM | > 100 µM | > 100 µM | > 100 µM | > 100 µM |  |  | > 100 µM | > 100 µM |  |  |  |  |  |  |  |  |  |  |
| C/C1=C\[C@H](C)C[C@H](C)OC(=O)C[C@H](c2ccc(O)cc2)NC(=O)[C@@H](Cc2c(Br)[nH]c3ccccc23)N(C)C(=O)[C@H](C)NC(=O)[C@@H](C)C1 |  | 0.384 µM and 0.175 µM | 0.95 µM and 3.11 µM | 1.05 µM | 0.317 µM and 0.0533 µM | 0.859 µM and 0.74 µM |  | 0.606 µM and 0.134 µM | 0.2 µM and 0.0985 µM | 0.37 µM and 1.15 µM | 0.0176 µM | 0.0969 µM | 0.114 µM | 0.0135 µM | 0.0272 µM | 0.0456 µM | 0.0451 µM | 0.0328 µM | 0.0747 µM |  |
| Cc1ccc(S(=O)(=O)N(/N=C(\N)Oc2ccc(Cl)cc2)C(=N)Oc2ccc(Cl)cc2)cc1 | > 100 µM | > 100 µM | > 100 µM | > 100 µM | > 100 µM | > 100 µM |  |  | > 100 µM | > 100 µM |  |  |  |  |  |  |  |  |  |  |
| COC(=O)c1c[nH]c(=O)[nH]c1=O | > 100 µM |  |  | > 100 µM | > 100 µM |  | > 100 µM | > 100 µM | > 100 µM | > 100 µM |  |  |  |  |  |  |  |  |  |  |
| COc1ccc(-c2nn(-c3cccc(Cl)c3)cc2C=C(C#N)C#N)cc1 | 6.92 µM | 6.37 µM | 6.48 µM | 7.66 µM | 4.81 µM | 3.33 µM | 90.1 µM | 7.04 µM |  | 5.27 µM | 2.39 µM | 2.29 µM | 2.68 µM | 2.08 µM |  | 2.39 µM | 1.57 µM | 1.59 µM | 1.82 µM | 3.55 µM |
| OCC(O)C(O)c1nn(-c2ccccc2)c2nc3cc(Cl)c(Cl)cc3nc12 (stereo unspecified) | > 100 µM | 50.9 µM | 93.5 µM | > 100 µM | 58.1 µM | > 100 µM |  |  | 41.5 µM | > 100 µM |  |  |  |  |  |  |  |  |  |  |

— PubChem BioAssay (NCI)
